Assays:
wt KIT kinase = wt KIT kinase (Homo sapiens (Human), UniProt P10721); experiment: Wild-type KIT binding assay (Kd determination, phage-tagged kinase, qPCR)
Description: Kd Determinations. For most assays, including wt KIT kinase, kinase-tagged T7 phage strains were prepared in an E. coli host derived from the BL21 strain. E. coli were grown to log-phase and infected with T7 phage and incubated with shaking at 32° C. until lysis. […] The liganded beads were blocked with excess biotin and washed with blocking buffer (SeaBlock (Pierce), 1% BSA, 0.05% Tween 20, 1 mM DTT) to remove unbound ligand and to reduce non-specific binding. […] Test compounds were prepared as 111× stocks in 100% DMSO. Kds were determined using an 11-point 3-fold compound dilution series with three DMSO control points. […] The compounds were then diluted directly into the assays such that the final concentration of DMSO was 0.9%. All reactions were performed in polypropylene 384-well plate. Each was a final volume of 0.02 ml. […] The kinase concentration in the eluates was measured by qPCR.
Binding Constants (Kds). Binding constants (Kds) were calculated with a standard dose-response curve using the Hill equation: Response=Background+Signal−Background 1+(KdHill Slope/DoseHill Slope). The Hill Slope was set to −1. Curves were fitted using a non-linear least square fit with the Levenberg-Marquardt algorithm.

UT-7 cells = experiment: UT-7 cell proliferation with SCF stimulation as a measure of wild-type KIT activity (CellTiter-Glo); format: cell-based, human; conditions: SCF-stimulated UT-7 cell proliferation
Text: UT-7 Cell Proliferation with SCF Stimulation Assay as a Measure of Wild-Type KIT Activity
UT-7 cells are human megakaryoblastic leukemia cell lines that can be grown in culture with dependence on granulocyte macrophage colony stimulating factor (GM-CSF) or stem cell factor (SCF). UT-7 cells respond to SCF stimulation by activation of the KIT receptor tyrosine kinase and subsequent downstream signaling that can support cell growth and proliferation (Kuriu et al, 1999; Komatsu et al, 1991; Sasaki et al, 1995). Test compounds were assayed for their ability to inhibit SCF-stimulated proliferation of UT-7 cells.
Inhibition of SCF-stimulated UT-7 cell proliferation was assessed using the CellTiter-Glo assay that quantifies the amount of adenosine triphosphate (ATP) present, which is a readout of metabolically active cells and is directly proportional to the number of viable cells in culture. The ability of test compounds to inhibit SCF-stimulated UT-7 cell proliferation was determined using a 10-point dose curve ranging from 25 μM to 95.4 pM of test compound.
UT-7 cells were maintained in IMDM supplemented with 10% FBS, 5 ng/mL GM-CSF and 100 units/mL Penicillin-Streptomycin and grown in a 37° C. humidified tissue culture incubator. UT-7 cells were washed once with serum free, GM-CSF free IMDM. Cells were then resuspended in IMDM containing 4% FBS and 50 ng/mL SCF and seeded at 2500 cells per well in a volume of 22 μL in a 384-well microplate. A 10-point dose concentration series of test compounds (25.0 μM to 95.4 pM) were then added to the cells in a volume of 3.1 μL to each well (0.25% DMSO final concentration) and placed in a tissue culture incubator (5% CO2, 37° C.) for 72 hours. After 3-days with test compound, CellTiter-Glo reagent was prepared fresh and 25 μL of reagent was added to each well. The plate was mixed by shaking for 10 minutes at RT at 300 rpm on a plate shaker. The plate was read on an EnVision plate reader using the Ultra Sensitive Luminescence protocol for a 384-well plate.

KIT D816V [1] = biological target: KIT D816V (Homo sapiens (Human), UniProt P10721, D816V/V560G); experiment: HMC1.2 autophosphorylation assay (phospho-Y719 KIT AlphaLISA); format: cell-based; conditions: HMC1.2 cell line, KIT autophosphorylation at tyrosine 719, 90 minutes; read-out: KIT (P-KIT HMC1.2 (nM))
Sequence of KIT D816V (Homo sapiens (Human), UniProt P10721, D816V/V560G) (P10721 26-976 V560G/D816V): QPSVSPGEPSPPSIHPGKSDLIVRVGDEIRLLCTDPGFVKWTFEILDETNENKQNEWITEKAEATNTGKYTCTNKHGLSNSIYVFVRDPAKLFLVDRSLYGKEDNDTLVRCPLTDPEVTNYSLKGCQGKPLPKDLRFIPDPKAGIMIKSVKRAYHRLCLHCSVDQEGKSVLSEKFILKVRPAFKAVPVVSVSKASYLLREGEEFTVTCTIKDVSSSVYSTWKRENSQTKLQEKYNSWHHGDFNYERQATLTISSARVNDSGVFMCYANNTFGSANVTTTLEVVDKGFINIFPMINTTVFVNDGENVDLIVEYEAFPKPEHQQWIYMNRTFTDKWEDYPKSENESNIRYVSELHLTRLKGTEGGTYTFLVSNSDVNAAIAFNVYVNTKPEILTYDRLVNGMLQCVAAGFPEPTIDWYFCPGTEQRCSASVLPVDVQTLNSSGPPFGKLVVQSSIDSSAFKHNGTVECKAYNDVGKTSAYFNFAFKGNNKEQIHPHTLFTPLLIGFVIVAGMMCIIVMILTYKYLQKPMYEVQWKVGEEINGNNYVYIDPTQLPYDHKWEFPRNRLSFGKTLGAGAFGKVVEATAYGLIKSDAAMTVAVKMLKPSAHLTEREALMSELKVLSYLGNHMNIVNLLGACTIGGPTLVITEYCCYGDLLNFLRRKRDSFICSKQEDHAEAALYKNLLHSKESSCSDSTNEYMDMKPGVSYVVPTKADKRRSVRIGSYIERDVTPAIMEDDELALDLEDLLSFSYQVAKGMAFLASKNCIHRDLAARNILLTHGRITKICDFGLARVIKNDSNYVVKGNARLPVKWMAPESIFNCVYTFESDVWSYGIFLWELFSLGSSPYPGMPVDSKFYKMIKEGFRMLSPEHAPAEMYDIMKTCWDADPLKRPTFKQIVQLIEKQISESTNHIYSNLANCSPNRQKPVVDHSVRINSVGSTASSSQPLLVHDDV
Description: 10,000 HMC1.2 cells were incubated in 22 μL culture media (phenol-red free IMDM, no serum) in each well of a 384-well plate and serum starved overnight in a tissue culture incubator (5% CO2, 37° C.). […] 10 μL of 100 μg/mL streptavidin donor beads (Perkin Elmer) were added to each well, blocked from light with solid black adhesive and shaken at 300 rpm at room temperature for 2 hours. Fluorescence signal was obtained on Envision (Perkin Elmer) by AlphaScreen 384 well HTS protocol.

KIT D816V [2] = biological target: KIT D816V (Homo sapiens (Human), UniProt P10721, D816V); experiment: KIT D816V biochemical enzymatic activity assay (EZReader 2 mobility shift); conditions: at APPKM for ATP, 20 μM ATP, 60 minutes
Sequence of KIT D816V (Homo sapiens (Human), UniProt P10721, D816V) (P10721 26-976 D816V): as the sequence (P10721 26-976 V560G/D816V) above, with G535V counted along it
Text: (§1) PDGFRα and KIT enzymatic activity was monitored using the Perkin Elmer electrophoretic mobility shift technology platform, the EZReader 2.
(§2) Within the linear, steady-state phase of the kinase enzymatic reaction, the mixed pool of phosphorylated (product) and non-phosphorylated (substrate) peptides was passed through the microfluidic system of the PerkinElmer EZ Reader 2, under an applied electric potential difference. The presence of the phosphate group on the product peptide provided a difference in mass and charge between that of the substrate peptide, resulting in a separation of the substrate and product pools in the sample (Perrin et al., Expert Opin Drug Discovery 2010 Jan. 5(1):51-63).
(§3) As the product and substrate peptide mixture passes the lasers within the instrument, these pools are detected (λex=488 nm, λem=568 nm) and resolved as separate peaks. The ratio between these peaks reflects the activity of the compound at that concentration, in that well, under those conditions.
(§4) All test articles were dissolved in 100% DMSO at a stock concentration of 10 mM. A 100×, 10-point, 4-fold serial dilution of all test compounds was created in 100% DMSO, starting at a relevant concentration, usually 1 mM. A volume of 0.130 μL of each concentration was transferred to the relevant well of a 384-well assay plate (Greiner 781 201) using a TTPLabtech Mosquito nano-liter dispenser. Using the Multidrop, the remaining constituents of the reaction were then added to the 0.130 μL of compound as follows:
The plate was read on a Caliper EZReader 2.

PDGFRα D842V = PDGFRα D842V (Homo sapiens (Human), UniProt P16234, D842V); experiment: PDGFRα D842V biochemical enzymatic activity assay (EZReader 2 mobility shift); conditions: at APPKM for ATP, 25 μM ATP, 90 minutes
Sequence of PDGFRα D842V (P16234 24-1089 D842V): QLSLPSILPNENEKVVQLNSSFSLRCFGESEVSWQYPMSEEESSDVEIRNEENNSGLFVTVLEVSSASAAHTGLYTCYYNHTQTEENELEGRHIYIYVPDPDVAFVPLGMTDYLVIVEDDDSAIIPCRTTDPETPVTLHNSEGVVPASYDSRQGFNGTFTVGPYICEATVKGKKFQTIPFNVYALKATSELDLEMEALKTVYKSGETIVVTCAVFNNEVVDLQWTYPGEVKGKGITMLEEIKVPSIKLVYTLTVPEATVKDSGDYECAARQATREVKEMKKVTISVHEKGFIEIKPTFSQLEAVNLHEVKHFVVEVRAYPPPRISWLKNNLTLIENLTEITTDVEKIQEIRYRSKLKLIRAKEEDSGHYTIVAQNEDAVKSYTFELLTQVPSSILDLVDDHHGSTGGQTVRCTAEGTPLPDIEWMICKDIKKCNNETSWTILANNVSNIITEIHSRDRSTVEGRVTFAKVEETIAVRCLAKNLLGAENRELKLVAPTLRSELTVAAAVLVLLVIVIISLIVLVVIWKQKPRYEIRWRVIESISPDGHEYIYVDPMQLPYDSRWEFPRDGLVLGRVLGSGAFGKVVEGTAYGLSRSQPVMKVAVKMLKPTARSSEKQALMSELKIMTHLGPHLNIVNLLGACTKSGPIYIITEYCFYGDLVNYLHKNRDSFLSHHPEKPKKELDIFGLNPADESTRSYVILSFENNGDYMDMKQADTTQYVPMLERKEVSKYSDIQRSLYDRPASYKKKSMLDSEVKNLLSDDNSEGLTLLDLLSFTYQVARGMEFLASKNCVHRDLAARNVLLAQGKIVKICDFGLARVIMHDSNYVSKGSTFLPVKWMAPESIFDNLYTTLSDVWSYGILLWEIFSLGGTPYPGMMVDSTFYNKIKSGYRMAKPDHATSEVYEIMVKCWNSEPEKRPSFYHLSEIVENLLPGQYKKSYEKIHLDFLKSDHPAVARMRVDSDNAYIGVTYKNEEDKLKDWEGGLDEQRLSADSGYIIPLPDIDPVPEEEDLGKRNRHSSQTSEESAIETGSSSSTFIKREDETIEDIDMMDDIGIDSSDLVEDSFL
Text: as §1, §2, §3
Inhibition of KIT (D816V) PDGFRα (D842V) Mutant Biochemical Enzymatic Activity
as §4
The reaction was stopped by the addition of 70 μl of Stop buffer (100 mM HEPES pH 7.5, 0.015% Brij 35, 35 mM EDTA and 0.2% of Coating Reagent 3, Caliper Lifesciences). The plate was read on a Caliper EZReader 2.

Sequence of wt KIT kinase (P10721 26-976): as the sequence (P10721 26-976 V560G/D816V) above, with G535V, V791D counted along it

| Kd (wt KIT kinase) [µM] | IC50 (KIT D816V [1]) [nM] | IC50 (KIT D816V [2]) [µM] | IC50 (PDGFRα D842V) [µM] | Structure (SMILES) | IC50 (UT-7 cells; Homo sapiens, UT7, 72 h) [nM] | IC50 (UT-7 cells; 72 hours) [nM] |
| --- | --- | --- | --- | --- | --- | --- |
| < 0.01 | 4.6 to 10 | 0.00031 to 0.001 | ≤ 0.0003 | C[C@](N)(c1ccc(F)cc1)c1cnc(N2CCN(c3ncnn4cc(-c5cnn([C@@H]6COC[C@@H]6O)c5)cc34)CC2)nc1 (single isomer, unassigned) [Compound 17] | 90.1 to 150 | – |
| < 0.01 | < 4.5 | ≤ 0.0003 | ≤ 0.0003 | C[C@](N)(c1ccc(F)cc1)c1cnc(N2CCN(c3ncnn4cc(-c5cnn([C@H]6COC[C@@H]6O)c5)cc34)CC2)nc1 (single isomer, unassigned) [Compound 18] | 90.1 to 150 | – |
| < 0.01 | < 4.5 | ≤ 0.0003 | ≤ 0.0003 | C[C@](N)(c1ccc(F)cc1)c1cnc(N2CCN(c3ncnn4cc(-c5cnn([C@H]6COC[C@H]6O)c5)cc34)CC2)nc1 (single isomer, unassigned) [Compound 20] | 90.1 to 150 | – |
| < 0.01 | < 4.5 | ≤ 0.0003 | ≤ 0.0003 | C[C@](N)(c1ccc(F)cc1)c1cnc(N2CCN(c3ncnn4cc(-c5cnn([C@@H]6CC[C@H]6O)c5)cc34)CC2)nc1 (single isomer, unassigned) [Compound 22] | 90.1 to 150 | – |
| – | – | – | ≤ 0.0003 | C[C@](N)(c1ccc(F)cc1)c1cnc(N2CCN(c3ncnn4cc(-c5cnn(C6COC6)c5)cc34)CC2)nc1 [Compound 7, (S)-1-(4-Fluorophenyl)-1-(2-(4-(6-(1-(oxetan-3-yl)-1H-pyrazol-4-yl)pyrrolo[2,1-f][1,2,4]triazin-4-yl)piperazin-1-yl)pyrimidin-5-yl)ethan-1-amine] | 90.1 to 150 | – |
| < 0.01 | 4.6 to 10 | ≤ 0.0003 | ≤ 0.0003 | C[C@](N)(c1ccc(F)cc1)c1cnc(N2CCN(c3ncnn4cc(-c5cnn([C@H]6C[C@H](O)C6)c5)cc34)CC2)nc1 [Compound 11, trans-3-{4-[4-(4-{5-[1-Amino-1-(4-fluoro-phenyl)-ethyl]-pyrimidin-2-yl}-piperazin-1-yl)-pyrrolo[2,1-f][1,2,4]triazin-6-yl]-pyrazol-1-yl}-cyclobutanol] | – | 90.1 to 150 |

More lines, now with the values behind:

| Structure (SMILES) | Kd (wt KIT kinase) [µM] | IC50 (KIT D816V [1]) [nM] | IC50 (KIT D816V [2]) [µM] | IC50 (PDGFRα D842V) [µM] | IC50 (UT-7 cells; Homo sapiens, UT7, 72 h) [nM] | IC50 (UT-7 cells; 72 hours) [nM] |
| --- | --- | --- | --- | --- | --- | --- |
| CC(C)(O)Cn1cc(-c2cc3c(N4CCN(c5ncc([C@@](C)(N)c6ccc(F)cc6)cn5)CC4)ncnn3c2)cn1 [Compound 1, (S)-1-(4-(4-(4-(5-(1-Amino-1-(4-fluorophenyl)ethyl)pyrimidin-2-yl)piperazin-1-yl)pyrrolo[2,1-f][1,2,4]triazin-6-yl)-1H-pyrazol-1-yl)-2-methylpropan-2-ol] | – | – | – | – | 150 to 200 | – |
| CC(C)(CO)n1cc(-c2cc3c(N4CCN(c5ncc([C@@](C)(N)c6ccc(F)cc6)cn5)CC4)ncnn3c2)cn1 [Compound 2, (S)-2-(4-(4-(4-(5-(1-amino-1-(4-fluorophenyl)ethyl)pyrimidin-2-yl)piperazin-1-yl)pyrrolo[2,1-f][1,2,4]triazin-6-yl)-1H-pyrazol-1-yl)-2-methylpropan-1-ol] | – | – | – | – | 150 to 200 | – |
| C[C@@H](O)Cn1cc(-c2cc3c(N4CCN(c5ncc([C@@](C)(N)c6ccc(F)cc6)cn5)CC4)ncnn3c2)cn1 [Compound 3, (R)1-{4-[4-(4-{5-[(S)-1-Amino-1-(4-fluoro-phenyl)-ethyl]-pyrimidin-2-yl}-piperazin-1-yl)-pyrrolo[2,1-f][1,2,4]triazin-6-yl]-pyrazol-1-yl}-propan-2-ol] | – | – | – | – | < 90 | – |
| C[C@H](CO)n1cc(-c2cc3c(N4CCN(c5ncc([C@@](C)(N)c6ccc(F)cc6)cn5)CC4)ncnn3c2)cn1 [Compound 5, (R)-2-(4-(4-(4-(5-((S)-1-Amino-1-(4-fluorophenyl)ethyl)pyrimidin-2-yl)piperazin-1-yl)pyrrolo[2,1-f][1,2,4]triazin-6-yl)-1H-pyrazol-1-yl)propan-1-ol] | – | – | – | – | < 90 | – |
| C[C@@H](CO)n1cc(-c2cc3c(N4CCN(c5ncc([C@@](C)(N)c6ccc(F)cc6)cn5)CC4)ncnn3c2)cn1 [Compound 6, (S)-2-(4-(4-(4-(5-((S)-1-amino-1-(4-fluorophenyl)ethyl)pyrimidin-2-yl)piperazin-1-yl)pyrrolo[2,1-f][1,2,4]triazin-6-yl)-1H-pyrazol-1-yl)propan-1-ol] | – | – | – | – | < 90 | – |
| C[C@H](O)Cn1cc(-c2cc3c(N4CCN(c5ncc([C@@](C)(N)c6ccc(F)cc6)cn5)CC4)ncnn3c2)cn1 [Compound 9] | – | – | – | ≤ 0.0003 | 90.1 to 150 | – |
| C[C@](N)(c1ccc(F)cc1)c1cnc(N2CCN(c3ncnn4cc(-c5cnn(CC6(O)CC6)c5)cc34)CC2)nc1 [Compound 12, (S)-1-((4-(4-(4-(5-(1-Amino-1-(4-fluorophenyl)ethyl)pyrimidin-2-yl)piperazin-1-yl)pyrrolo[2,1-f][1,2,4]triazin-6-yl)-1H-pyrazol-1-yl)methyl)cyclopropan-1-ol] | – | – | – | ≤ 0.0003 | 90.1 to 150 | – |
| C[C@](N)(c1ccc(F)cc1)c1cnc(N2CCN(c3ncnn4cc(-c5cnn(C6(CO)CC6)c5)cc34)CC2)nc1 [Compound 13, (S)-(1-(4-(4-(4-(5-(1-Amino-1-(4-fluorophenyl)ethyl)pyrimidin-2-yl)piperazin-1-yl)pyrrolo[2,1-f][1,2,4]triazin-6-yl)-1H-pyrazol-1-yl)cyclopropyl)methanol] | – | – | – | ≤ 0.0003 | 90.1 to 150 | – |

— patent US10829493B2, “Compositions and methods for treating KIT- and PDGFRA-mediated diseases” (Blueprint Medicines Corporation, priority 2019, dated 2020)
